Here are results for 8 compounds from patent US20120316137A1, “Methods and Compositions for Treating Cancer” (priority 2009, published 2012).

Assay [1] relates to OPM2 multiple myeloma cells, mutant FGFR3 (K650E). Description: cells. Particulars: Homo sapiens, OPM-2, read-out: Cell growth GI50 (nM).
Excerpt: (§1) Data are shown as mean (±SD) from 3 separate experiments tested in triplicate.
Assay [2] has as its system KG1 cells (FGFR1-FGFR1OP2 fusion). As to the kind of experiment: Cell growth assay (72 h). Particulars: Homo sapiens. The format is cell-based.
Excerpt: as §1
The subject of assay [3] is SNU16 gastric cancer cells with amplified FGFR2. Description: cells. Particulars: Homo sapiens, SNU-16, read-out: Cell growth GI50 (nM).
Excerpt: as §1
For assay [4], the system named is AN3CA endometrial cancer cells with mutant FGFR2 (N549K). Description: cells. Particulars: Homo sapiens, AN3-CA, read-out: Cell growth GI50 (nM).
Excerpt: as §1
Assay [5] deals with FGFR2 signaling in SNU16 gastric cells (Amplified). As to the kind of experiment: cells. Particulars: Homo sapiens, SNU-16, read-out: Signaling IC50 (nM).
Excerpt: Cells were lysed in either SDS buffer or Phospho-Safe (Novagen, Gibbstown, N.J.) and protein lysates were immunoprecipitated overnight and/or immunoblotted with the indicated antibodies. Protein expression was quantified using Quantity One software (BioRad, Hercules, Calif.).
The test system of assay [6] is MDA-MB-453 breast cancer cells, mutant FGFR4 (Y367C). Description: cells. Particulars: Homo sapiens, MDA-MB-453, read-out: Cell growth GI50 (nM).
Excerpt: as §1
The test system of assay [7] is MGH-U3 bladder cancer cells, mutant FGFR3b (Y375C). As to the kind of experiment: Cell growth assay (72 h). It is filed as cell-based.
Excerpt: as §1
The next assay concerns the target FGFR2 (Homo sapiens, UniProt P21802). Description: Kinase assay (RBC). Particulars: IC50 (nM), 10 μM ATP.
A further assay has as its target FGFR4 (Homo sapiens, UniProt P22455). Description: Kinase assay (RBC).
Assay [8] relates to Kasumi-1 cells (c-KIT N822K). Description: Cell viability assay (72 h). The format is cell-based. Particulars: Homo sapiens; Kasumi-1; 72 hours; read-out: Cell viability IC50.
Description: (§2) Exponentially growing cell lines were plated into 96-well plates and incubated overnight at 37° C. […] Fluorescence was measured using a Wallac Victor microplate reader (PerkinElmer, Waltham, Mass.). […] Data are shown as mean (1 SD) from 3 separate experiments, each tested in triplicate.
The next assay relates to MV4-11 cells (FLT3-ITD). As to the kind of experiment: Cell viability assay (72 h). Particulars: Homo sapiens, MV4-11, 72 h, read-out: Cell viability IC50 (nM).
In assay [9] the test system is EOL1 cells (FIP1L1-PDGFRα). Description: Cell viability assay (72 h). Particulars: Homo sapiens, EOL1, 72 h, read-out: Cell viability IC50 (nM).
Description: as §2
Assay [10] deals with KG1 cells (FGFR1OP2-FGFR1). As to the kind of experiment: Cell viability assay (72 h). Particulars: Homo sapiens, KG-1, 72 h, read-out: Cell viability IC50 (nM).
Description: as §2
A further assay deals with RS4;11 cells (wt). As to the kind of experiment: Cell viability assay (72 h). Particulars: Homo sapiens, RS4-11, 72 h, read-out: Cell viability IC50 (nM).
Assay [11] has as its system MFE-296 endometrial cancer cell line. As to the kind of experiment: Combination cell growth assay (Chou and Talalay). Particulars: MFE-296 cells; cell growth; read-out: 1×EC50 concentration. It is filed as cell-based.
The test system of assay [12] is AN3CA endometrial cancer cell line. As to the kind of experiment: Combination cell growth assay (Chou and Talalay). Particulars: AN3CA cells; cell growth; read-out: 1×EC50 concentration. It is filed as cell-based.
Assay [13] concerns FGFR2-mutant AN3CA tumor xenograft. As to the kind of experiment: AN3CA xenograft, compound 1 and ridaforolimus (Example 9). It is filed as in vivo, nude mice.
Description: AN3CA cells were implanted into the right flank of nude mice. […] Mean tumor volumes (±SE; tumor volume=L×W^2×0.5) were calculated for each treatment group.
For assay [14], the system named is mononuclear cells from a CML accelerated phase patient harboring BCR-ABL^T315I. Description: Hematopoietic colony forming assay. Particulars: methylcellulose, 14-18 days.
[15] abbreviates: KG-1, read-out: Cell growth GI50 (nM).
The mark [16] stands for this setting: MGH-U3, read-out: Cell growth GI50.

Read-outs that look alike come from different tables or passages of the source.

Sequence of FGFR4 (P22455 467-755 limits assumed): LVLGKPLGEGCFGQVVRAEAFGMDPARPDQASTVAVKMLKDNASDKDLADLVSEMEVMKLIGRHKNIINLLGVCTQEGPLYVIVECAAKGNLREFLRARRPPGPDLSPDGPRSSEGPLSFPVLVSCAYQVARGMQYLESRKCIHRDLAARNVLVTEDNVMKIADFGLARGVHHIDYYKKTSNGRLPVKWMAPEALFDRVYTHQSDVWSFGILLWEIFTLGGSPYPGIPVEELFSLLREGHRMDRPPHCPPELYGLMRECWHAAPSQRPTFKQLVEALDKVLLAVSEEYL
Sequence of FGFR2 (P21802 481-770 limits assumed): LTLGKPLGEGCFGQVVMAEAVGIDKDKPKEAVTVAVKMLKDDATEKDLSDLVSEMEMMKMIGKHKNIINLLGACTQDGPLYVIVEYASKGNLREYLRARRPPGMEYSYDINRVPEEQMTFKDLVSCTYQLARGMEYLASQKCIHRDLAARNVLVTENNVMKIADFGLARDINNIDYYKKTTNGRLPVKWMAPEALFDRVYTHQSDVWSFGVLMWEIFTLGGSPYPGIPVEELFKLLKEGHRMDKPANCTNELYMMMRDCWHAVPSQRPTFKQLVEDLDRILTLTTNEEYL
Description for MV4-11 cells (FLT3-ITD): as §2
Description for RS4;11 cells (wt): as §2

For `COC(=O)c1ccc2c(c1)NC(=O)/C2=C(\Nc1ccc(N(C)C(=O)CN2CCN(C)CC2)cc1)c1ccccc1` [BIBF 1120], the GI50 was 297 nM in assay [1]; 221 nM in assay [2] (setting [15]); 496 nM in assay [3]; 684 nM in assay [4]; 1540 nM in assay [6]; more than 1000 nM in assay [7] (read-out: Cell growth GI50 (nM), MGH-U3). For the same compound, the IC50 in assay [5] was 496 nM.
As for `Cc1cc2c(F)c(Oc3ncnn4cc(OC[C@@H](C)O)c(C)c34)ccc2[nH]1` [BMS-540215], the GI50 is 6200 nM in assay [1]; more than 1000 nM in assay [3]; more than 1000 nM in assay [4]; more than 10000 nM in [6]; more than 1000 nM in [7] (setting [16]). Also, the IC50 is 202 nM against FGFR2 and more than 1000 nM in assay [5].
For `CCN(CC)CCCCNc1ncc2cc(-c3cc(OC)cc(OC)c3)c(NC(=O)NC(C)(C)C)nc2n1` [PD 173074], the GI50 stood at 83 nM in assay [1]; 10 nM in [2] (setting [15]); 20 nM in assay [3]; 187 nM in [4]; 1660 nM in assay [6]; 850 nM in [7] (setting [16]). On FGFR4, the IC50 stood at 367 nM.
In the case of `COc1cc2c(Oc3ccc4[nH]c(C)cc4c3F)ncnc2cc1OCCCN1CCCC1` [AZD 2171], the 50% growth inhibitory concentration (GI50) was 296 nM in assay [1]; 23 nM in assay [2] (KG-1, KG1, read-out: Cell growth GI50); 34 nM in assay [4]; more than 1000 nM in assay [6]; 296 nM in [7] (setting [16]). The IC50 in assay [5] turned out to be 148 nM.
Take `CCN(CC)CCNC(=O)c1c(C)[nH]c(/C=C2\C(=O)Nc3ccc(F)cc32)c1C` [Sunitinib, sunitinib]: the IC50 in [8] is 56 nM; in the assay with MV4-11 cells (FLT3-ITD), 12 nM; in assay [9], 3 nM; in assay [10] it was more than 100 nM; in the assay on RS4;11 cells (wt), more than 100 nM.
For `CNC(=O)c1cc(Oc2ccc(NC(=O)Nc3ccc(Cl)c(C(F)(F)F)c3)cc2)ccn1` [Sorafenib, sorafenib], the IC50 was 59 nM in [8]; 4 nM with MV4-11 cells (FLT3-ITD); 0.5 nM in [9]; more than 100 nM in assay [10]; more than 100 nM in the assay on RS4;11 cells (wt).
As for `CO[C@H]1C[C@@H]2CC[C@@H](C)[C@@](O)(O2)C(=O)C(=O)N2CCCC[C@H]2C(=O)O[C@H]([C@H](C)C[C@@H]2CC[C@@H](OP(C)(C)=O)[C@H](OC)C2)CC(=O)[C@H](C)/C=C(\C)[C@@H](O)[C@@H](OC)C(=O)[C@H](C)C[C@H](C)/C=C/C=C/C=C/1C` [Ridaforolimus, reference compound], the EC50 in [11] amounted to 1 nM; in assay [12] it was 0.4 nM. Also, the results for the “TGI (%)” value in assay [13] (Ridaforolimus 0.3 mg/kg alone) and in assay [13] (Ridaforolimus 1 mg/kg alone) were 48% and 70%, respectively.
`Cc1cn(-c2cc(NC(=O)c3ccc(C)c(Nc4nccc(-c5cccnc5)n4)c3)cc(C(F)(F)F)c2)cn1` [nilotinib]: the “effect on colony formation” value in [14] is “neither nilotinib nor dasatinib showed any effect”.

The term GI50 denotes the concentration at which growth is held to half of that of the control. For orientation: IC50 means the concentration at which inhibition is half-maximal.
